Laboratory results taken from patent US10406207B2, “Peptide conjugates of GLP-1 receptor agonists and gastrin and their use” (priority 2010, dated 2019).
Where two headings read alike, the source gives them in different places. Ends that are not written are not given here.

Assays:
mouse CCK-B R = molecular target: T1, mouse CCK-B R (Mus musculus, UniProt P56481); experiment: Mouse CCK-B receptor efficacy assay (AlphaScreen SureFire p-ERK); assay type: cell-based
T1 construct: expressed in transfected cells
T1 sequence (P56481 1-453): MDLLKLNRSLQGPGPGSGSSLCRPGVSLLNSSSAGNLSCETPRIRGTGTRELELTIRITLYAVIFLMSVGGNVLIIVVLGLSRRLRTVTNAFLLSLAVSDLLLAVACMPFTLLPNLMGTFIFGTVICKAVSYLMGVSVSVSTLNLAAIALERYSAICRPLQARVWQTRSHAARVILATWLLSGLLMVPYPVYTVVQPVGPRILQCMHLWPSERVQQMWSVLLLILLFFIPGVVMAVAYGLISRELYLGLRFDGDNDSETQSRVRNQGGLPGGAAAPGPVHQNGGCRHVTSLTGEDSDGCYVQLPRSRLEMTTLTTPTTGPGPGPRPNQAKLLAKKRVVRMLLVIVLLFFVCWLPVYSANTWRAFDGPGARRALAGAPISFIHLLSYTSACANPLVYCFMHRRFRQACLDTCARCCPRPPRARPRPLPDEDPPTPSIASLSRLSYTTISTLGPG
Excerpt: CCK-B Receptor (CCK-B R) Efficacy Assay:
To test binding and activation of CCK-B R we produced stable cell lines expressing one of the human or mouse CCK receptors in a manner similar to that for production of the hGLP-1 R cell lines were generated (vide supra). In brief, we used HEK293 cells for transfection of the cDNA for human or mouse CCK-A R or CCK-B R [hCCK-A R (gene identity: L19315), hCCK-B R (NM_176875), mCCK-A R (NM_009827) and mCCK-B R (NM_007627)] all cloned into the transfection plasmid pIRESneo2dNGFR. The cells were grown according to standard protocol in growth medium and transfected with the plasmids using Lipofectamin (Invitrogen). The cells stably expressing CCK receptors were selected using G418 in the growth medium (only cells that have taken up and incorporated the cDNA expression plasmid survive) and propagated. Stocks of cells were frozen for later use.
In vitro effects of peptide conjugates of the invention were estimated by measuring p-ERK (using the AlphaScreen™ SureFire p-ERK assay) in HEK293 cells stably expressing the human and mouse CCK-B R (high-affinity Gastrin receptor), respectively. The Gastrin receptor efficacy assays (AlphaScreen™ SureFire p-ERK assay) were performed as follows:
The CCK-B R expressing cells in question were seeded at 20,000 cells/well in 100 μl growth medium [DMEM, 10% FCS, Penicillin (100 IU/ml), Streptomycin (100 μg/ml)] in a 96-well plate coated with poly-D-lysine. The cells were incubated in an incubator (37° C., 5% […]) for two days.
The growth medium was changed to 80 μl of serum-free medium [DMEM, Penicillin (100 IU/ml), Streptomycin (100 μg/ml)] per well, and incubation of the cells was continued for 19 hours in the incubator (37° C., 5% CO2).
• 1. After 19 hours, 20 μl of serum-free medium containing one of 5 different concentrations of peptide conjugate was added (performed in triplicate for each concentration), and the cells were incubated for 5 min. at room temperature. • 2. The stimulation medium was discarded by quickly turning the plate upside down, and 60 μl 1× lysis buffer (from the SureFire assay kit) was added per well. • 3. The plate was shaken on a plate-shaker for 5 min and then placed on ice. • 4. SureFire P-ERK assay: 4 μl of each supernatant was transferred to a 384 well proxiplate (Perkin Elmer). • 5. 4 μl of each of the two control lysates (unstimulated and stimulated) were added to the proxiplate in duplicate. • 6. […] 7 μl of the latter reaction buffer+activation buffer+beads per well were added in the proxiplate, the mix being resuspended carefully before addition to the wells. • 7. The plate was incubated for 2 hours in a dark box in a 22° C. incubator. • 8. The plate was analyzed on an Envision™ light-emission plate reader (Perkin-Elmer) using the appropriate reading program (Perkin-Elmer).

human CCK-B R = molecular target: T2, human CCK-B R (Homo sapiens, UniProt P32239); experiment: Human CCK-B receptor efficacy assay (AlphaScreen SureFire p-ERK); assay type: cell-based; details: Table 1; HEK293 cells expressing human CCK-B R, p-ERK; read-out: hCCK-B R EC50
T2 construct: expressed in transfected cells
T2 sequence (P32239 1-447): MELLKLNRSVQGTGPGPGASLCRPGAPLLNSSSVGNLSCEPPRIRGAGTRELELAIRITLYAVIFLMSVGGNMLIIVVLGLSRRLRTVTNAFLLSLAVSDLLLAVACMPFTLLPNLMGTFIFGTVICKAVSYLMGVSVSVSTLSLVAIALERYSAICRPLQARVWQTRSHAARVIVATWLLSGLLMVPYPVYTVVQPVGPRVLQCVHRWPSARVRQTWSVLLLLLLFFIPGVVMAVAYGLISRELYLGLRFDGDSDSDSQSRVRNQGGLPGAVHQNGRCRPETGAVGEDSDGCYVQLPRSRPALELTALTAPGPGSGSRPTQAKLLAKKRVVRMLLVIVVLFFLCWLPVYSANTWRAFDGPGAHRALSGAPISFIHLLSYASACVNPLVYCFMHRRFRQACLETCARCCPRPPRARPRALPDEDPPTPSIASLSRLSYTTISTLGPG
Method: The CCK-B R expressing cells in question were seeded at 20,000 cells/well in 100 μl growth medium [DMEM, 10% FCS, Penicillin (100 IU/ml), Streptomycin (100 μg/ml)] in a 96-well plate coated with poly-D-lysine. The cells were incubated in an incubator (37° C., 5% 002) for two days.

[1] = Table 1, HEK293 cells expressing mouse CCK-B R, p-ERK, read-out: mCCK-B R EC50

CC[C@H](C)[C@H](NC(=O)[C@H](Cc1ccccc1)NC(=O)[C@H](CCC(=O)O)NC(=O)[C@H](CCCCN)NC(=O)[C@H](C)NC(=O)[C@H](C)NC(=O)[C@H](CCC(N)=O)NC(=O)CNC(=O)[C@H](CCC(=O)O)NC(=O)[C@H](CC(C)C)NC(=O)[C@H](Cc1ccc(O)cc1)NC(=O)[C@H](CO)NC(=O)[C@H](CO)NC(=O)[C@@H](NC(=O)[C@H](CC(=O)O)NC(=O)[C@H](CO)NC(=O)[C@@H](NC(=O)[C@H](Cc1ccccc1)NC(=O)[C@@H](NC(=O)CNC(=O)[C@H](CCC(=O)O)NC(=O)[C@H](C)NC(=O)[C@@H](N)Cc1c[nH]cn1)[C@@H](C)O)[C@@H](C)O)C(C)C)C(=O)N[C@@H](C)C(=O)N[C@@H](Cc1c[nH]c2ccccc12)C(=O)N[C@@H](CC(C)C)C(=O)N[C@H](C(=O)N[C@@H](CCCCN)C(=O)NCC(=O)N[C@@H](CCCNC(=N)N)C(=O)NCCOCCOCC(=O)N[C@@H](CO)C(=O)N[C@@H](CCCCN)C(=O)N[C@@H](CCCCN)C(=O)N[C@@H](CCC(N)=O)C(=O)NCC(=O)N1CCC[C@H]1C(=O)N[C@@H](Cc1c[nH]c2ccccc12)C(=O)N[C@@H](CC(C)C)C(=O)N[C@@H](CCC(=O)O)C(=O)N[C@@H](CCC(=O)O)C(=O)N[C@@H](CCC(=O)O)C(=O)N[C@@H](CCC(=O)O)C(=O)N[C@@H](CCC(=O)O)C(=O)N[C@@H](C)C(=O)N[C@@H](Cc1ccc(O)cc1)C(=O)NCC(=O)N[C@@H](Cc1c[nH]c2ccccc12)C(=O)N[C@@H](CC(C)C)C(=O)N[C@@H](CC(=O)O)C(=O)N[C@@H](Cc1ccccc1)C(N)=O)C(C)C [Compound 41, GLP-1(7-36)-Peg3-SKK-[Gln1,Leu15]Gastrin17]
EC50 (mouse CCK-B R; [1]): 51.1 nM
EC50 (human CCK-B R): 8.76 nM

CC[C@H](C)[C@H](NC(=O)[C@H](Cc1ccccc1)NC(=O)[C@H](CCC(=O)O)NC(=O)[C@H](CCCCN)NC(=O)[C@H](C)NC(=O)[C@H](C)NC(=O)[C@H](CCC(N)=O)NC(=O)CNC(=O)[C@H](CCC(=O)O)NC(=O)[C@H](CC(C)C)NC(=O)[C@H](Cc1ccc(O)cc1)NC(=O)[C@H](CO)NC(=O)[C@H](CO)NC(=O)[C@@H](NC(=O)[C@H](CC(=O)O)NC(=O)[C@H](CO)NC(=O)[C@@H](NC(=O)[C@H](Cc1ccccc1)NC(=O)[C@@H](NC(=O)CNC(=O)[C@H](CCC(=O)O)NC(=O)[C@H](C)NC(=O)[C@@H](N)Cc1c[nH]cn1)[C@@H](C)O)[C@@H](C)O)C(C)C)C(=O)N[C@@H](C)C(=O)N[C@@H](Cc1c[nH]c2ccccc12)C(=O)N[C@@H](CC(C)C)C(=O)N[C@H](C(=O)N[C@@H](CCCCN)C(=O)NCC(=O)N[C@@H](CCCNC(=N)N)C(=O)NCCCCCCCC(=O)N[C@@H](CO)C(=O)N[C@@H](CCCCN)C(=O)N[C@@H](CCCCN)C(=O)N[C@@H](CCC(N)=O)C(=O)NCC(=O)N1CCC[C@H]1C(=O)N[C@@H](Cc1c[nH]c2ccccc12)C(=O)N[C@@H](CC(C)C)C(=O)N[C@@H](CCC(=O)O)C(=O)N[C@@H](CCC(=O)O)C(=O)N[C@@H](CCC(=O)O)C(=O)N[C@@H](CCC(=O)O)C(=O)N[C@@H](CCC(=O)O)C(=O)N[C@@H](C)C(=O)N[C@@H](Cc1ccc(O)cc1)C(=O)NCC(=O)N[C@@H](Cc1c[nH]c2ccccc12)C(=O)N[C@@H](CC(C)C)C(=O)N[C@@H](CC(=O)O)C(=O)N[C@@H](Cc1ccccc1)C(N)=O)C(C)C [Compound 43, GLP-1(7-36)-8Aoc-SKK-[Gln1,Leu15]Gastrin17]
EC50 (mouse CCK-B R; [1]): 82.5 nM
EC50 (human CCK-B R): 51.9 nM

CC[C@H](C)[C@H](NC(=O)[C@H](Cc1ccccc1)NC(=O)[C@H](CCC(=O)O)NC(=O)[C@H](CCCCN)NC(=O)[C@H](C)NC(=O)[C@H](C)NC(=O)[C@H](CCC(N)=O)NC(=O)CNC(=O)[C@H](CCC(=O)O)NC(=O)[C@H](CC(C)C)NC(=O)[C@H](Cc1ccc(O)cc1)NC(=O)[C@H](CO)NC(=O)[C@H](CO)NC(=O)[C@@H](NC(=O)[C@H](CC(=O)O)NC(=O)[C@H](CO)NC(=O)[C@@H](NC(=O)[C@H](Cc1ccccc1)NC(=O)[C@@H](NC(=O)CNC(=O)[C@H](CCC(=O)O)NC(=O)[C@H](C)NC(=O)[C@@H](N)Cc1c[nH]cn1)[C@@H](C)O)[C@@H](C)O)C(C)C)C(=O)N[C@@H](C)C(=O)N[C@@H](Cc1c[nH]c2ccccc12)C(=O)N[C@@H](CC(C)C)C(=O)N[C@H](C(=O)N[C@@H](CCCCN)C(=O)NCC(=O)N[C@@H](CCCNC(=N)N)C(=O)NCCCCCCCC(=O)NCCCCCCCC(=O)N[C@@H](CCC(N)=O)C(=O)NCC(=O)N1CCC[C@H]1C(=O)N[C@@H](Cc1c[nH]c2ccccc12)C(=O)N[C@@H](CC(C)C)C(=O)N[C@@H](CCC(=O)O)C(=O)N[C@@H](CCC(=O)O)C(=O)N[C@@H](CCC(=O)O)C(=O)N[C@@H](CCC(=O)O)C(=O)N[C@@H](CCC(=O)O)C(=O)N[C@@H](C)C(=O)N[C@@H](Cc1ccc(O)cc1)C(=O)NCC(=O)N[C@@H](Cc1c[nH]c2ccccc12)C(=O)N[C@@H](CC(C)C)C(=O)N[C@@H](CC(=O)O)C(=O)N[C@@H](Cc1ccccc1)C(N)=O)C(C)C [Compound 45, GLP-1(7-36)-8Aoc-8Aoc-[Gln1,Leu15]Gastrin17]
EC50 (mouse CCK-B R; [1]): 71.4 nM
EC50 (human CCK-B R): 12.8 nM

CC[C@H](C)[C@H](NC(=O)[C@H](Cc1ccccc1)NC(=O)[C@H](CCC(=O)O)NC(=O)[C@H](CCCCN)NC(=O)[C@H](C)NC(=O)[C@H](C)NC(=O)[C@H](CCC(N)=O)NC(=O)CNC(=O)[C@H](CCC(=O)O)NC(=O)[C@H](CC(C)C)NC(=O)[C@H](Cc1ccc(O)cc1)NC(=O)[C@H](CO)NC(=O)[C@H](CO)NC(=O)[C@@H](NC(=O)[C@H](CC(=O)O)NC(=O)[C@H](CO)NC(=O)[C@@H](NC(=O)[C@H](Cc1ccccc1)NC(=O)[C@@H](NC(=O)CNC(=O)[C@H](CCC(=O)O)NC(=O)[C@H](C)NC(=O)[C@@H](N)Cc1c[nH]cn1)[C@@H](C)O)[C@@H](C)O)C(C)C)C(=O)N[C@@H](C)C(=O)N[C@@H](Cc1c[nH]c2ccccc12)C(=O)N[C@@H](CC(C)C)C(=O)N[C@H](C(=O)N[C@@H](CCCCN)C(=O)NCC(=O)N[C@@H](CCCNC(=N)N)C(=O)NCCc1cccc2c1oc1c(CCC(=O)N[C@@H](CO)C(=O)N[C@@H](CCCCN)C(=O)N[C@@H](CCCCN)C(=O)N[C@@H](CCC(N)=O)C(=O)NCC(=O)N3CCC[C@H]3C(=O)N[C@@H](Cc3c[nH]c4ccccc34)C(=O)N[C@@H](CC(C)C)C(=O)N[C@@H](CCC(=O)O)C(=O)N[C@@H](CCC(=O)O)C(=O)N[C@@H](CCC(=O)O)C(=O)N[C@@H](CCC(=O)O)C(=O)N[C@@H](CCC(=O)O)C(=O)N[C@@H](C)C(=O)N[C@@H](Cc3ccc(O)cc3)C(=O)NCC(=O)N[C@@H](Cc3c[nH]c4ccccc34)C(=O)N[C@@H](CC(C)C)C(=O)N[C@@H](CC(=O)O)C(=O)N[C@@H](Cc3ccccc3)C(N)=O)cccc12)C(C)C [Compound 44, GLP-1(7-36)-DBF-SKK-[Gln1,Leu15]Gastrin17]
EC50 (mouse CCK-B R; [1]): 86.9 nM
EC50 (human CCK-B R): 25.7 nM

QGPWLEEEEEAYGWLDF-NH2 [h[Gln1,Leu15]Gastrin17, reference compound]
EC50 (mouse CCK-B R): 18.2 nM
